The subject of one experiment is pSTAT3 in HT29 cells. In words: pSTAT3 inhibition in response to IL-22 stimulation in serum starved HT29 cells. The format is cell-based. Here is the method:
HT29 cells were serum starved overnight before the four test compounds were diluted to generate a 9-point semi-log dose dilution with a top concentration of 10 μM, plus vehicle control. HT29 cells were incubated with the test compounds for 20 min at 37° C. HT29 cells were incubated for a further 15 min with 10 ng/ml human IL-22 before cells were fixed with 4% PFA for 10 min, and 90% methanol for 30 min before being labelled with a phospho-STAT3Y705 antibody (CST #9145). Cells were rinsed three times using 0.5% BSA/PBS solution before being incubated with Alexa-488 anti-rabbit secondary antibodies.
Mean fluorescence intensity of phospho-STAT3 in single cells was analysed by flow cytometry using an Intellicyt iQue instrument and FlowJo software. The IC50 was determined using a four-parameter analysis following removal of background signal and normalisation to the DMSO control.

In the next experiment the target is TYK2 (Homo sapiens, UniProt P29597). The experiment can be described thus: TYK2 kinase inhibition assay (33P-ATP filter binding, Reaction Biology).
Sequence of TYK2 (P29597 833-1187): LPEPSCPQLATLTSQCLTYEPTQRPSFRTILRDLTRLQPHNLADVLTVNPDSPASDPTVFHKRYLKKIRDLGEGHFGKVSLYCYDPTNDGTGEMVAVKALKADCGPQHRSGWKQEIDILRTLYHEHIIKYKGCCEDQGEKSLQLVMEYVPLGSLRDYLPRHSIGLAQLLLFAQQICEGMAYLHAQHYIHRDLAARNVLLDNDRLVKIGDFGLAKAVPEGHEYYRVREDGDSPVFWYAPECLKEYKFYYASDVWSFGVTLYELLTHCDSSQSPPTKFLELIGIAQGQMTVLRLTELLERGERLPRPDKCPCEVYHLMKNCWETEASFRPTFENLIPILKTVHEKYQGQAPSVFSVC
The next experiment has as its target JAK1 (Homo sapiens, UniProt P23458). The experiment can be described thus: JAK1 kinase inhibition assay (33P-ATP filter binding, Reaction Biology).
Another experiment addresses JAK3 (Homo sapiens, UniProt P52333). In words: JAK3 kinase inhibition assay (33P-ATP filter binding, Reaction Biology).

Sequence of JAK1 (P23458 866-1154): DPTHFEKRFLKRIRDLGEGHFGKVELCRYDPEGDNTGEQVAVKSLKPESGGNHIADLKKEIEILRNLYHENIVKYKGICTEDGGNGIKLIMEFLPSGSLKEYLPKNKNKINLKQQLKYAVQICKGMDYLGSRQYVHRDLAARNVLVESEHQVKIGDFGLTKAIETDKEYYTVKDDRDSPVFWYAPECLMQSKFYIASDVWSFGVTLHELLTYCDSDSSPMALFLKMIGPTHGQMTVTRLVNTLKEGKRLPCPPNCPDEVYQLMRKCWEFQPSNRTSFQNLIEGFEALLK
Sequence of JAK3 (P52333 781-1124): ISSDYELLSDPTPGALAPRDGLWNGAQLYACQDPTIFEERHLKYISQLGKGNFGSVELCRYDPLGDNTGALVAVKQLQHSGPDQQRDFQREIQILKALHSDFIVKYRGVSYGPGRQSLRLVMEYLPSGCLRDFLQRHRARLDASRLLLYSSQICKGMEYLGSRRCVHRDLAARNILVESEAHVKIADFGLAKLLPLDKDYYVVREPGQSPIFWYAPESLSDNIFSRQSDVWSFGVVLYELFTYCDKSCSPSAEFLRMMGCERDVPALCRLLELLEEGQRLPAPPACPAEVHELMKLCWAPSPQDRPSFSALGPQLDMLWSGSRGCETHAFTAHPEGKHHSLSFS

Usually inhibition stands for the share of the control response that was lost under treatment. What is called IC50 is the midpoint of a concentration-inhibition curve. A higher IC50 goes with a need for much substance. With `NC(=O)c1nc(-c2c(F)cccc2Cl)oc1Nc1ccc(C(=O)N2CCOCC2)cc1` [A, 2-(2-chloro-6-fluoro-phenyl)-5-[4-(morpholine-4-carbonyl)-phenylamino]-oxazole-4-carboxylic acid amide, reference compound], the inhibition at 10 µM with pSTAT3 in HT29 cells (HT-29, HT29 cells, 10 ng/ml human IL-22, 10 μM compound) was 96.9%. Also, the IC50 was 170 nM in the experiment with pSTAT3 in HT29 cells (Homo sapiens, HT-29, HT29 cells, 10 ng/ml human IL-22); 10 nM on TYK2; 49 nM on JAK1; 290 nM on JAK3.

Values taken from patent publication US12187716B2, “TYK2 kinase inhibitors” (SAREUM LIMITED, priority 2018, dated 2025).
